Results from ChEMBL document CHEMBL1125506, “Fluoronaphthyridines as antibacterial agents. 6. Synthesis and structure-activity relationships of new chiral 7-(1-, 3-, 4-, and 6-methyl-2,5-diazabicyclo[2.2.1]heptan-2-yl)naphthyridine analogues of 7-[(1R,4R)-2,5- diazabicyclo[2.2.1]heptan-2-yl]-1-(1,1-dimethylethyl)-6-fluoro-1,4-dihy …” (J Med Chem, 1992).
Converted amounts (≈) assume the structure as drawn.

Legend:
Mus musculus [1] = assay: In vivo efficacy on systemic infections caused by Streptococcus pneumoniae A9585 in mice after peroral administration; format: functional; conditions: po, read-out: PD50
Mus musculus [2] = assay: In vivo efficacy on systemic infections caused by Pseudomonas aeruginosa A9843 in mice after intramuscular administration; format: functional; conditions: im, read-out: PD50
[3] = Partition coefficient (logD); format: physicochemical; conditions: octanol/water
Serratia marcescens = assay: In vitro antibacterial activity against Serratia marcescens A20019; format: functional
Escherichia coli = assay: In vitro antibacterial activity against Escherichia coli A15119; format: functional
Mus musculus [4] = assay: In vivo efficacy on systemic infections caused by Staphylococcus aureus A15090 in mice after intramuscular administration; format: functional; conditions: im, read-out: PD50
[5] = Solubility (water, 22C, pH 7.2); format: physicochemical; conditions: read-out: S
Staphylococcus aureus = assay: In vitro antibacterial activity against Staphylococcus aureus A9537; format: functional
Mus musculus [6] = assay: In vivo efficacy on systemic infections caused by Streptococcus pneumoniae A9585 in mice after intramuscular administration; format: functional; conditions: im, read-out: PD50
Bacteroides fragilis = assay: In vitro antibacterial activity against Bacteroides fragilis A-22,862; format: functional
Enterococcus faecalis = assay: In vitro antibacterial activity against Enterococcus faecalis A9809; format: functional
Proteus mirabilis = assay: In vitro antibacterial activity against Proteus mirabilis A9900; format: functional
Klebsiella pneumoniae = assay: In vitro antibacterial activity against Klebsiella pneumoniae A9664; format: functional
Morganella morganii = assay: In vitro antibacterial activity against Morganella morganii A15153; format: functional
Mus musculus [7] = assay: In vivo efficacy on systemic infections caused by Staphylococcus aureus A15090 in mice after peroral administration; format: functional; conditions: po, read-out: PD50
Pseudomonas aeruginosa = assay: In vitro antibacterial activity against Pseudomonas aeruginosa A9843; format: functional
Streptococcus pneumoniae = assay: In vitro antibacterial activity against Streptococcus pneumoniae A9585.; format: functional
Mus musculus [8] = assay: In vivo efficacy on systemic infections caused by Pseudomonas aeruginosa A9843 after peroarl administration in mice; format: functional; conditions: read-out: PD50
Enterobacter cloacae = assay: In vitro antibacterial activity against Enterobacter cloacae A9656; format: functional
Mus musculus [9] = assay: percent urinary recovery in 24 hr after intravenous administration to mice; format: functional, Urine
[10] = Peak concentration in blood after intravenous administration to mice; format: ADME, organism-based; parameters: route intravenous; conditions: mouse
[11] = Percent urinary recovery in 24 hr after peroral administration to mice; format: ADME, organism-based; conditions: mouse, urine, po; read-out: UR
Mus musculus [12] = assay: In vivo efficacy on systemic infections caused by Pseudomonas aeruginosa A9843 in mice after peroral administration; format: functional; conditions: po, read-out: PD50
Mus musculus [13] = assay: In vivo efficacy on systemic infections caused by Escherichia coli A15119 in mice after intramuscular administration; format: functional; conditions: im, read-out: PD50
Mus musculus [14] = assay: In vivo efficacy on systemic infections caused by Escherichia coli A15119 in mice after peroral administration; format: functional; conditions: po, read-out: PD50
[15] = Peak concentration in blood after peroral administration to mice; format: ADME, organism-based; parameters: route oral; conditions: mouse, po

Compound | ED50 (Mus musculus [1]) | ED50 (Mus musculus [2]) | MIC (Serratia marcescens) | ED50 (Mus musculus [4]) | MIC (Staphylococcus aureus) | ED50 (Mus musculus [6]) | MIC (Bacteroides fragilis) | MIC (Enterococcus faecalis) | MIC (Proteus mirabilis) | MIC (Klebsiella pneumoniae) | MIC (Morganella morganii) | ED50 (Mus musculus [7]) | MIC (Streptococcus pneumoniae) | further results
C[C@@H]1N[C@@H]2C[C@H]1N(c1nc3c(cc1F)c(=O)c(C(=O)O)cn3-c1ccc(F)cc1F)C2.Cl | > 50 mg/kg | 2.4 mg/kg | 0.25 µg/mL | 1 mg/kg | 0.06 µg/mL | > 50 mg/kg | 4 µg/mL | 1 µg/mL | 0.5 µg/mL | 0.13 µg/mL | 0.5 µg/mL | 1.4 mg/kg | 1 µg/mL | logD [3]: -0.14; MIC (Escherichia coli): 0.03 µg/mL; solubility [5]: 15 µg/mL; MIC (Pseudomonas aeruginosa): 1 µg/mL; ED50 (Mus musculus [8]): 3.1 mg/kg; MIC (Enterobacter cloacae): 0.13 µg/mL
O=C(O)c1cn(C2CC2)c2cc(N3CCNCC3)c(F)cc2c1=O [CIPROFLOXACIN] | > 50 mg/kg | 1.3 mg/kg | 0.03 µg/mL (≈ 0.0905 µM) | 3.9 mg/kg | 0.06 µg/mL (≈ 0.181 µM) | 28.7 mg/kg | 1 µg/mL (≈ 3.02 µM) | 0.5 µg/mL (≈ 1.51 µM) | 0.008 µg/mL (≈ 0.0241 µM) | 0.06 µg/mL (≈ 0.181 µM) | 0.008 µg/mL (≈ 0.0241 µM) | 12.5 mg/kg | 0.25 µg/mL (≈ 0.754 µM) | UR (Mus musculus [9]): 25%; Cmax [10]: 22000 ng/mL; dose excreted at 24 h [11]: 30%; ED50 (Mus musculus [12]): 2.6 mg/kg; ED50 (Mus musculus [13]): 0.05 mg/kg; ED50 (Mus musculus [14]): 1.4 mg/kg; Cmax [15]: 6000 ng/mL
